Measurements: ChEMBL document CHEMBL1909046, “DrugMatrix in vitro pharmacology data”

Key:
Progesterone receptor = target: T1, Progesterone receptor (Bos taurus, UniProt Q690N0); test: DRUGMATRIX: Progesterone radioligand binding (ligand: [3H] R-5020); type: tissue-based, Uterus; conditions: Not Active = under 50% inhibition at 10 µM; for Ki: read-out: Ki
T1 sequence (Q690N0 whole entry): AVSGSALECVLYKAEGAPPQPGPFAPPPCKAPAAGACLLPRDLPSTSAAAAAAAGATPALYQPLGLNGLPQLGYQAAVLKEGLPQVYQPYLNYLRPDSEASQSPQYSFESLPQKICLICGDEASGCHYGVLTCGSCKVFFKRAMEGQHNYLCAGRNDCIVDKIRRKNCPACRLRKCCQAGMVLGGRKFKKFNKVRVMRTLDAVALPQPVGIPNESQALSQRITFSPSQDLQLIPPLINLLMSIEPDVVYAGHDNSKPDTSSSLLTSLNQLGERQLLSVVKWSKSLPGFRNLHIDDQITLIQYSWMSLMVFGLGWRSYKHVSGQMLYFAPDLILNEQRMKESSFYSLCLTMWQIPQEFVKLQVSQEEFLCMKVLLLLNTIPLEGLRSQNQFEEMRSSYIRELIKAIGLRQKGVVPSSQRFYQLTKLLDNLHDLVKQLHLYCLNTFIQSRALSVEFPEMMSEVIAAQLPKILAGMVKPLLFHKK

[1] = target: T2, Neuropeptide Y receptor type 2 (Homo sapiens, UniProt P49146); type: cell membranes, KAN-TS, Membrane; conditions: kan-ts; note: in other assays of this panel Not Active means under 50% inhibition at 10 µM
T2 sequence (P49146 whole entry): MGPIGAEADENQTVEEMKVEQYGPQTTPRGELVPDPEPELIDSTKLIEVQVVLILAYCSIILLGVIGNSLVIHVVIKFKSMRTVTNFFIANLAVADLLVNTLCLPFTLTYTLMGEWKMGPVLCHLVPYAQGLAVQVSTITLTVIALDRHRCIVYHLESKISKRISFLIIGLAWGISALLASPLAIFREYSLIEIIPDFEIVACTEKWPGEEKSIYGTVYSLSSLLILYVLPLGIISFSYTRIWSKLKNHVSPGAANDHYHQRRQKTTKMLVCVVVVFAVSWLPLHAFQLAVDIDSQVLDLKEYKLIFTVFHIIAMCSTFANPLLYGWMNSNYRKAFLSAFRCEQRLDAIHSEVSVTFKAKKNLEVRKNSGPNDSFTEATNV

[2] = target: T3, Alpha-2C adrenergic receptor (Homo sapiens, UniProt P18825); test: DRUGMATRIX: Adrenergic Alpha-2C radioligand binding (ligand: [3H] MK-912); type: cell membranes, Sf9, Membrane
T3 sequence (P18825 whole entry): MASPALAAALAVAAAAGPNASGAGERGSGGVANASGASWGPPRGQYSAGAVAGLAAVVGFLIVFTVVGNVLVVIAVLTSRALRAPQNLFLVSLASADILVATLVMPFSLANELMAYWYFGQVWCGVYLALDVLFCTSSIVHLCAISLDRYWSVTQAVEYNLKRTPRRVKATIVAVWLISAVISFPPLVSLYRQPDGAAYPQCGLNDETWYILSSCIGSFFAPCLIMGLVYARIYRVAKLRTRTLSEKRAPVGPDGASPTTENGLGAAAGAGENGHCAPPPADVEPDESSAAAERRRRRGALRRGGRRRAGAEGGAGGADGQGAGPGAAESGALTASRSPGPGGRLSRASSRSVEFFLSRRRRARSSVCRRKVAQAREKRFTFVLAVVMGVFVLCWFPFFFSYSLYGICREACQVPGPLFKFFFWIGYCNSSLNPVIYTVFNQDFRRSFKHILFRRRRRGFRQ

D(1A) dopamine receptor = D(1A) dopamine receptor (Homo sapiens, UniProt P21728); test: DRUGMATRIX: Dopamine D1 radioligand binding (ligand: [3H] SCH-23390); type: cell membranes, CHO, Membrane; conditions: cho; Not Active = under 50% inhibition at 10 µM
[3] = DRUGMATRIX: Glutamate, Kainate radioligand binding (ligand: [3H] Kainic acid); type: cell membranes, Rattus norvegicus, Wistar, Brain, Membrane; conditions: Not Active = under 50% inhibition at 10 µM
[4] = target: Beta-2 adrenergic receptor (Homo sapiens, UniProt P07550); test: DRUGMATRIX: Adrenergic beta2 radioligand binding (ligand: [3H] CGP-12177); type: cell membranes, CHO, Membrane; conditions: cho; Not Active = under 50% inhibition at 10 µM
Beta-2 adrenergic receptor, sequence (P07550 whole entry): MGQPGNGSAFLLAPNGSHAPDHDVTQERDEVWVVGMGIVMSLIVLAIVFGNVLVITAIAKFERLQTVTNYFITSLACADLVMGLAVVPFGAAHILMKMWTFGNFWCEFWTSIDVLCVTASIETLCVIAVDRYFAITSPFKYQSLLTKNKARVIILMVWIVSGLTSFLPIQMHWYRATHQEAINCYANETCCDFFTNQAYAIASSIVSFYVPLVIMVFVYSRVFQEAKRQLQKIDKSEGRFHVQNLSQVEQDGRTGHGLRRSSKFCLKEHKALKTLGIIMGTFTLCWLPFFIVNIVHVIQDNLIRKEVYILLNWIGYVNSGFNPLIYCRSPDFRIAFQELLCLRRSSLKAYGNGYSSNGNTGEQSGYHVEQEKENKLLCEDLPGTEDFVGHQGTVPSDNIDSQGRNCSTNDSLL

D(1A) dopamine receptor, sequence (P21728 whole entry): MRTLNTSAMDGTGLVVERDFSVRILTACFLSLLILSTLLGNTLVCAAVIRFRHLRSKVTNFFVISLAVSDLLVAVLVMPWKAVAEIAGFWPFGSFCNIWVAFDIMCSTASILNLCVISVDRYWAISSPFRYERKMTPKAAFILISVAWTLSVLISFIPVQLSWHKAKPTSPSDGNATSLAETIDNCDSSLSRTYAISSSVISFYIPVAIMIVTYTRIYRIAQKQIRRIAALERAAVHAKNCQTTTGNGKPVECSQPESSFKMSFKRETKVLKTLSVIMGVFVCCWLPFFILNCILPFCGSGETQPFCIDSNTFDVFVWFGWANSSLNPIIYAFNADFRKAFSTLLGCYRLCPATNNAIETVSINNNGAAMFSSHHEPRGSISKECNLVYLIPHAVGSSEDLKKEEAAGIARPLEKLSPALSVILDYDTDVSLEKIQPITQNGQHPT

Row | Compound | IC50 (Progesterone receptor; read-out: IC50) [nM] | Ki (Progesterone receptor) [nM] | IC50 [1] | IC50 ([2]; sf9) | IC50 (D(1A) dopamine receptor) | IC50 [3] | Ki [3] | IC50 [4] | IC50 (Progesterone receptor) | IC50 ([2]; read-out: IC50) [nM] | Ki ([2]; read-out: Ki) [nM]
1 | C#C[C@]1(OC(C)=O)CC[C@H]2[C@@H]3CCC4=C[C@@H](OC(C)=O)CC[C@@H]4[C@H]3CC[C@@]21C [ETHYNODIOL DIACETATE] | 160 | 21 | Not Active | Not Active | Not Active | Not Active | Not Active | Not Active | – | – | –
2 | COc1cc([C@@H]2c3cc4c(cc3[C@@H](O[C@@H]3O[C@@H]5CO[C@@H](C)O[C@H]5[C@H](O)[C@H]3O)[C@H]3COC(=O)[C@H]23)OCO4)cc(OC)c1O [ETOPOSIDE] | – | – | Not Active | Not Active | Not Active | Not Active | Not Active | Not Active | Not Active | – | –
3 | C=CCc1ccc(O)c(OC)c1 [EUGENOL] | – | – | Not Active | Not Active | Not Active | Not Active | Not Active | Not Active | Not Active | – | –
4 | CC(C(=O)O)c1cccc(Oc2ccccc2)c1 (centres undefined) [FENOPROFEN] | – | – | Not Active | Not Active | Not Active | Not Active | Not Active | Not Active | Not Active | – | –
5 | CC(C)(C)NC(=O)[C@H]1CC[C@H]2[C@@H]3CC[C@H]4NC(=O)C=C[C@]4(C)[C@H]3CC[C@]12C [FINASTERIDE] | – | – | Not Active | Not Active | Not Active | Not Active | Not Active | Not Active | Not Active | – | –
6 | COc1ccc2c3c1O[C@H]1C[C@@H](O)C=C[C@@]31CCN(C)C2 [GALANTAMINE] | – | – | Not Active | Not Active | Not Active | Not Active | Not Active | Not Active | Not Active | – | –
7 | Nc1ccn([C@@H]2O[C@H](CO)[C@@H](O)C2(F)F)c(=O)n1 [GEMCITABINE] | – | – | Not Active | Not Active | Not Active | Not Active | Not Active | Not Active | Not Active | – | –
8 | CC(C)=CCC/C(C)=C/CO [GERANIOL] | – | – | Not Active | Not Active | Not Active | Not Active | Not Active | Not Active | Not Active | – | –
9 | Oc1c(Cl)cc(Cl)c(Cl)c1Cc1c(O)c(Cl)cc(Cl)c1Cl [HEXACHLOROPHENE] | – | – | Not Active | – | Not Active | Not Active | Not Active | Not Active | Not Active | 6980 | 1010
10 | NNc1nncc2ccccc12 [HYDRALAZINE] | – | – | Not Active | Not Active | Not Active | Not Active | Not Active | Not Active | Not Active | – | –
11 | CC(=O)[C@@]1(O)CC[C@H]2[C@@H]3CCC4=CC(=O)CC[C@]4(C)[C@H]3CC[C@@]21C [HYDROXYPROGESTERONE] | 12 | 1.55 | Not Active | Not Active | Not Active | Not Active | Not Active | Not Active | – | – | –
12 | COC1=C(OC)C(=O)C(CCCCCCCCCCO)=C(C)C1=O [IDEBENONE] | – | – | Not Active | Not Active | Not Active | Not Active | Not Active | Not Active | Not Active | – | –
13 | CC(C)NNC(=O)c1ccncc1 [IPRONIAZID] | – | – | Not Active | Not Active | Not Active | Not Active | Not Active | Not Active | Not Active | – | –
